Laboratory results taken from patent US7994164B2, “Mineralocorticoid receptor antagonists and methods of use” (Eli Lilly and Company, priority 2007, dated 2011).

Tests used:
[1] = test system: uni-nephrectomized Sprague Dawley rats; test: In vivo model of aldosterone mediated renal disease; settings: 10 mg/kg/day x 14 days, oral gavage, aldosterone-infused rats; average of n=8
Procedure: Male uni-nephrectomized Sprague Dawley rats (240-280 g) are housed individually with ad lib house water and rodent 5001 diet for one week. After acclimation, baseline 24 h urine samples are collected and analyzed for total urine protein and creatinine. Animals are randomized via body weight and baseline urine protein into study groups. Baseline serum is taken by tail-clip and analyzed for blood urea nitrogen (BUN), creatinine, and electrolytes. After baseline samples are taken, all rats with the exception of the control group are maintained on a diet containing 6% salt, and drinking water containing 0.3% KCl throughout the study duration. […] Alza mini-pumps to deliver 2.5 μl/h×28 days of d-aldosterone in 0.01% DMSO at 0.75 μg/h, s.c. are implanted in non-control animals (e.g Test Compound group and Vehicle only group) under isoflourane anesthesia. […] Repeat urine samples are collected after 2 and 4 weeks of compound or vehicle alone administration and analyzed for total urine protein and creatinine. At study termination, pharmacokinetic samples are obtained at 8 timepoints (0.5, 1, 2, 3, 6, 8, 12 and 24 h). In addition, hearts and kidneys are removed and fixed in 10% buffered formalin for haematoxylin and eosin (H&E) and Masson's trichrome staining to detect structural damage in cardiac and renal tissues. Serum is taken by cardiac puncture at study termination for additional analysis of serum BUN, creatinine, and electrolytes.

[2] = target: T1, human MR (mineralocorticoid receptor) (Homo sapiens, UniProt P08235); test: Steroid hormone nuclear receptor binding assay (MR binding); settings: HEK293 lysate overexpressing human MR, [3H]-aldosterone; individual values geometric mean of n=2
T1 construct: expressed in transfected cells; host or cells: HEK293 (lysate, '293-MR lysate')
T1 sequence (P08235 1-984): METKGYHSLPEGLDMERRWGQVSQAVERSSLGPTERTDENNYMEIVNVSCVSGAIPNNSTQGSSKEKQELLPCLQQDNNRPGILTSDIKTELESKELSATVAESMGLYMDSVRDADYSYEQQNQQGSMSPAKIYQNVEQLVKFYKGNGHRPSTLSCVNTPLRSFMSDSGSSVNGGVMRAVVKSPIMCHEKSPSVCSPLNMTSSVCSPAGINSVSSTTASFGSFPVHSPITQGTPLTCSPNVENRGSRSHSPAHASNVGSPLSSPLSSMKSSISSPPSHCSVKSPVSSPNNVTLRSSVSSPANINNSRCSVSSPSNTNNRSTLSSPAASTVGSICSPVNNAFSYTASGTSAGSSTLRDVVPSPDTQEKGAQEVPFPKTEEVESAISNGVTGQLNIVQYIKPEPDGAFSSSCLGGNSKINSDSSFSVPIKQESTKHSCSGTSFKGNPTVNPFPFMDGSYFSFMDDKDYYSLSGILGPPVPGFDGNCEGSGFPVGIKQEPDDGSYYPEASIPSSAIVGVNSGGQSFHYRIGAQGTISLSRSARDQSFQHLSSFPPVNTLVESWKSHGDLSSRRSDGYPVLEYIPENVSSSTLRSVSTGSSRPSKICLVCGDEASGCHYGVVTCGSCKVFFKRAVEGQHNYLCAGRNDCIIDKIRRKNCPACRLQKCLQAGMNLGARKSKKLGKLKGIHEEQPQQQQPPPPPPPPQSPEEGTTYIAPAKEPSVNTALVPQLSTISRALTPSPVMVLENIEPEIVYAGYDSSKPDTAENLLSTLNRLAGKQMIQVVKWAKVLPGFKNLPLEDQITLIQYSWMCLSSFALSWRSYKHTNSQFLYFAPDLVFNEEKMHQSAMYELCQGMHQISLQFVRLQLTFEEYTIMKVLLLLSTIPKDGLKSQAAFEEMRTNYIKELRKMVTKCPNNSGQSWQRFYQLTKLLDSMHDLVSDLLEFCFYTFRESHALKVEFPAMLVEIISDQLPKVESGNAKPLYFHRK
Procedure: Cell lysates from human embryonic kidney HEK293 cells overexpressing human MR (mineralocorticoid receptor), GR (glucocorticoid receptor), AR (androgen receptor), or PR (progesterone receptor) are used for receptor-ligand competition binding assays to determine Ki values.
Briefly, steroid receptor competition binding assays are run in a buffer containing 20 mM HEPES buffer (pH=7.6), 0.2 mM EDTA, 75 mM NaCl, 1.5 mM MgCl2, 20% glycerol, 20 mM sodium molybdate, 0.2 mM DTT (dithiothreitol), 20 μg/mL aprotinin and 20 μg/mL leupeptin (assay buffer). Typically, steroid receptor binding assays include radio-labeled ligands, such as 0.25 nM [^3H]-aldosterone for MR binding, 0.3 nM [^3H]-dexamethasone for GR binding, 0.36 nM [^3H]-methyltrienolone for AR binding, and 0.29 nM [^3H]-methyltrienolone for PR binding, and either 20 μg 293-MR lysate, 20 μg 293-GR lysate, 22 μg 293-AR lysate, or 40 μg 293-PR lysate per well. Assays are typically run in 96-well format. Competing test compounds are added at various concentrations ranging from about 0.01 nM to 10 μM. […] The binding reactions (140 μL) are incubated overnight at 4° C., then 70 μL of cold charcoal-dextran buffer (containing per 50 mL of assay buffer, 0.75 g of charcoal and 0.25 g of dextran) is added to each reaction. Plates are mixed for 8 minutes on an orbital shaker at 4° C. The plates are then centrifuged at 3,000 rpm at 4° C. for 10 minutes. An aliquot of 120 μL of the binding reaction mixture is then transferred to another 96-well plate and 175 μL of Wallac Optiphase Hisafe 3™ scintillation fluid is added to each well. Plates are sealed and shaken vigorously on an orbital shaker. After an incubation of 2 hours, plates are read in a Wallac Microbeta counter.
The Kd for [^3H]-aldosterone for MR binding, [^3H]-dexamethasone for GR binding, [^3H]-methyltrienolone for AR binding, or [^3H]-methyltrienolone for PR binding, is determined by saturation binding. The IC50 values for compounds are converted to Ki using the Cheng-Prusoff equation.

[3] = target: T2, human MR (Homo sapiens, UniProt P08235); test: hMR competitive antagonist assay (luciferase reporter, Schild analysis); assay type: cell-based
T2 construct: expressed in transfected cells; host or cells: HEK293, transient transfection with a CMV-driven plasmid and a GRE-TK-luciferase reporter
T2 sequence (P08235 1-984): T1 sequence (P08235 1-984)
Excerpt: Human embryonic kidney HEK293 cells are transfected with steroid hormone receptor and reporter gene plasmids using a suitable transfection reagent such as Fugene™. Briefly, the reporter plasmid containing two copies of probasin ARE and TK (thymidine kinase) promoter upstream of the luciferase reporter cDNA, is transfected into HEK293 cells with a plasmid constitutively expressing human androgen receptor (AR) using viral CMV (cytomegalovirus) promoter. The reporter plasmid containing two copies of GRE and TK promoter upstream of the luciferase reporter cDNA is transfected with a plasmid constitutively expressing either human glucocorticoid receptor (GR), human mineralocorticoid receptor (MR), or human progesterone receptor (PR) using viral CMV promoter. Cells are transfected in T150 cm flasks in DMEM media with 5% charcoal-stripped Fetal Bovine Serum (FBS). After an overnight incubation, transfected cells are trypsinized, plated in 96 well dishes in DMEM media containing 5% charcoal-stripped FBS, incubated for 4 hours and then exposed to various concentrations of test compounds ranging from about 0.01 nM to 10 μM. […] After 24 hours incubation with test compounds, cells are lysed and luciferase activity is determined using standard techniques.
Human embryonic kidney HEK293 cells are transfected with human MR using the same transfection reagents, plasmids, promoters, reporter constructs, buffers, and procedures as described above for the Nuclear Hormone Receptor Panel Screen.

| Ki [2] | Kb [3] | SMILES | reduced urinary protein excretion compared to vehicle treated animals [1] |
| --- | --- | --- | --- |
| ~0.79 nM | ~1.2 nM | C[C@H](CN1CCOCC1)n1/c(=N/C#N)[nH]c2cc(/C=C3\c4ccc(F)cc4COc4cc(F)ccc43)ccc21 [Example 1, (E)-N—((R)-5-((E)-3,8-Difluoro-6H-dibenzo[b,e]oxepin-11-ylidenemethyl)-1-(1-methyl-2-morpholin-4-yl-ethyl)-1,3-dihydro-benzoimidazol-2-ylidene)-cyanamide] | about 49 mg/day |
| ~0.08 nM | ~1.1 nM | CN1CCN(n2/c(=N/C#N)[nH]c3cc(/C=C4\c5ccccc5COc5cc(F)ccc54)ccc32)CC1 [Example 8, (E)-N-(5-((E)-3-Fluoro-6H-dibenzo[b,e]oxepin-11-ylidenemethyl)-1-(4-methyl-piperazin-1-yl)-1,3-dihydro-benzoimidazol-2-ylidene)-cyanamide] | ~83 mg/day |
| ~0.23 nM | ~2.5 nM | N#C/N=c1\[nH]c2cc(/C=C3/c4ccc(F)cc4OCc4c(F)cccc43)ccc2n1[C@H]1C[C@@H]2COCCN2C1 [Example 23, (E)-N-(5-((E)-3,7-Difluoro-6H-dibenzo[b,e]oxepin-11-ylidenemethyl)-1-((7S, 8aR)-hexahydro-pyrrolo[2,1-c][1,4]oxazin-7-yl)-1,3-dihydro-benzoimidazol-2-ylidene)-cyanamide] | ~64 mg/day |
